From patent US20210255193A1, “LYSINE REACTIVE PROBES AND USES THEREOF” (The Scripps Research Institute, priority 2017, published 2021)

Key:
Test in all cases: competitive isoTOP-ABPP
Assay type in all cases: binding
[1] = biological target: T1, MAP2K3 Dual specificity mitogen-activated protein kinase (Homo sapiens, UniProt P46734)
T1 construct: isoTOP-ABPP experiments performed in cell lysates (in vitro); endogenous in cells; host or cells: soluble proteome of human cancer cell lines (MDA-MB-231; Ramos and Jurkat also prepared)
T1 sequence (P46734 1-347): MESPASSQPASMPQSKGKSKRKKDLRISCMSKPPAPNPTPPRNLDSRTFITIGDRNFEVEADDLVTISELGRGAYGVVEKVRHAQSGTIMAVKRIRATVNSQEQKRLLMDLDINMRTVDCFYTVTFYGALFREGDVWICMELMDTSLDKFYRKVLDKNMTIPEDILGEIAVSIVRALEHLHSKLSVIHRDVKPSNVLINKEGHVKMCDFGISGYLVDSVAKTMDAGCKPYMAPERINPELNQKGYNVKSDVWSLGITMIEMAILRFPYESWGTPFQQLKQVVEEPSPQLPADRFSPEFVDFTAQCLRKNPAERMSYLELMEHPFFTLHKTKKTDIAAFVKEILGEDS
Procedure, shortened: (§1)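 Fragments at 50 μM (activated esters) or 100 μM (guanidinylating agents) were incubated with 0.5 ml lysate before probe labeling. After 0.1 mM STP-alkyne for 1 h, samples were clicked to isotopically distinct TEV tags, and R taken as DMSO-over-compound MS1 peak-area ratio.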

EEF2 Elongation factor 2 = biological target: T2, EEF2 Elongation factor 2 (Homo sapiens, UniProt P13639)
T2 construct: isoTOP-ABPP experiments performed in cell lysates (in vitro); endogenous in cells; host or cells: soluble proteome of human cancer cell lines (MDA-MB-231; Ramos and Jurkat also prepared)
Procedure, shortened: as §1

[2] = biological target: T3, PFKL 6-phosphofructokinase, liver type (Homo sapiens, UniProt P17858); conditions: for isoTOP-ABPP ratio, lysine P17858_K677: possible other lysine P17858_K681; for isoTOP-ABPP ratio, lysine P17858_K715: possible other lysine P17858_K714
T3 construct: isoTOP-ABPP experiments performed in cell lysates (in vitro); endogenous in cells; host or cells: soluble proteome of human cancer cell lines (MDA-MB-231; Ramos and Jurkat also prepared)
T3 sequence (P17858 1-780): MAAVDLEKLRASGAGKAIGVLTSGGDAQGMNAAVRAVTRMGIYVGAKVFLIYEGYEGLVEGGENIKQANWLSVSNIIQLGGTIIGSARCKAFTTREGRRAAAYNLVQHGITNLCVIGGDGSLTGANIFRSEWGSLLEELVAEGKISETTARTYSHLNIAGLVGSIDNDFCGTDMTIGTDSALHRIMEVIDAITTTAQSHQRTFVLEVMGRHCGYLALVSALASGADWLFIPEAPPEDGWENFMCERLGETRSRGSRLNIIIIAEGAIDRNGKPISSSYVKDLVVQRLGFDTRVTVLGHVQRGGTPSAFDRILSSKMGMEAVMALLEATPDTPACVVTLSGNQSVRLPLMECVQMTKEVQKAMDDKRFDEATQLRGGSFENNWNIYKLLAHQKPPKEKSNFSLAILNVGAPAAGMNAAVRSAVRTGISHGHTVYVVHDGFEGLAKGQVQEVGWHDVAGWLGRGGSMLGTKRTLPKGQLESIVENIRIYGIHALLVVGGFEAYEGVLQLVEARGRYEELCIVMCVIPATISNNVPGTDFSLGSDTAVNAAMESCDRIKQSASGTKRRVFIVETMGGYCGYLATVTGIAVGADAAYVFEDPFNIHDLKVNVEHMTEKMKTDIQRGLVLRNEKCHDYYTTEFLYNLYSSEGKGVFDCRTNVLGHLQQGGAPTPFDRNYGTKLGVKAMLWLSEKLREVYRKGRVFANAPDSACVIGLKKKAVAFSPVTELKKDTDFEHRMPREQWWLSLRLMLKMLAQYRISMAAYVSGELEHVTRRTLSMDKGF
Procedure, shortened: as §1

Structure (SMILES) | isoTOP-ABPP ratio, lysine P46734_K93 ([1]; 100 uM_231_sol_in vitro) | isoTOP-ABPP ratio, lysine P13639_K235 (EEF2 Elongation factor 2; 100 uM_231_sol_in vitro) | isoTOP-ABPP ratio, lysine P13639_K318 (EEF2 Elongation factor 2; 100 uM_231_sol_in vitro) | isoTOP-ABPP ratio, lysine P17858_K677 ([2]; 100 uM_231_sol_in vitro) | isoTOP-ABPP ratio, lysine P17858_K715 ([2]; 100 uM_231_sol_in vitro) | isoTOP-ABPP ratio, lysine P46734_K93 ([1]; 50 uM_231_sol_in vitro) | isoTOP-ABPP ratio, lysine P13639_K235 (EEF2 Elongation factor 2; 50 uM_231_sol_in vitro) | isoTOP-ABPP ratio, lysine P13639_K318 (EEF2 Elongation factor 2; 50 uM_231_sol_in vitro) | isoTOP-ABPP ratio, lysine P17858_K677 ([2]; 50 uM_231_sol_in vitro) | isoTOP-ABPP ratio, lysine P17858_K715 ([2]; 50 uM_231_sol_in vitro)
CC(C)(C)OC(=O)N=C(NC(=O)OC(C)(C)C)n1cccn1 [fragment 50, reference compound] | 1.8 | 7.5 | 1.8 | 20.0 | 2.9 |  |  |  |  | 
NC(=O)c1cc(C(F)(F)F)cc(C(F)(F)F)c1 [fragment 51, reference compound] |  |  |  |  |  | 1.0 | 0.9 | 0.9 | 0.9 | 0.9
